According to patent publication US4898975A, “Water soluble organic ammonium per halides” (Great Lakes Chemical Corporation, priority 1989, dated 1990):
Like-named read-outs stand apart in the source and are kept apart here.

Columns and labels:
[1] = Titration of oxidizable bromine (Standard Methods, Method 408A); format: physicochemical; details: for Ox. Br2: of the sample used for vapor pressure (Table 9)
[2] = Vapor pressure of aqueous organic ammonium perbromides (isoteniscope); format: physicochemical; details: for Vp: 26° C. (Table 9)
Description: The vapor pressures of the aqueous organic ammonium perbromides were measured using an isoteniscope as described by Farrington, et al. [Farrington, D.; Alberti, R.; William, S.; Corwell, C.; Bender, P; and Harriman, S. Experimental Physical Chemistry, Experiment 17, pp. 164-165, 7th Edition, McGraw Hill Publishing Co., New York, 1976].

[3] = Water solubility of perbromides
[4] = format: physicochemical; details: closed bottle
Description: In order to determine the shelf life stability of the perbromide solutions, a series of studies were conducted to determine the percent bromine lost over time. The following tables shown below list the perbromides studied and the percent oxidizable bromine lost over time. The perbromides studied were kept in closed bottles in ambient conditions (Table 7) and at 50° C.

[5] = physchem; details: water
[6] = higher aqueous ethanolammonium perbromides (Table 6)
[7] = completely soluble perbromides, aqueous solution (Table 1)
[8] = concentrated and anhydrous perbromides (Table 4)
[9] = partially soluble perbromides, separated liquid phase (Table 2)
[10] = 50° C., time elapsed 40 (months)
[11] = 50° C., time elapsed 40 (months), 1.752e+06 min

**Q.** For NCCO [Compound 26], which “Tit. Ox. Br2” value [1, 6] is on record?
**A.** 52.6 % by Weight

**Q.** With CCCCCCN [Compound 8, Hexylammonium Perbromide] as the molecule, how does the “Tit. Ox. Br2” value [1, 7] read?
**A.** 36.1 % by Weight

**Q.** With CN(C)CCO [Compound 7, Dimethylethanolammonium Perbromide, reference compound] as the molecule, how does the Vp [2] read?
**A.** 30 mmHg

**Q.** Which “Tit. Ox. Br2” value [1, 8] does the source give for CCCN [Compound 19, Propylammonium Perbromide] here?
**A.** 53.2 % by Weight

**Q.** For CCN(CC)CCO [Compound 14, Diethylethanolammonium], which “Tit. Ox. Br2” value [1, 9] is on record?
**A.** 42.3 % by Weight

**Q.** And the “Solubility in water (in words)” value [3]?
**A.** only sparingly soluble in water

**Q.** What about the solubility [3] of the same molecule?
**A.** 1 mg/mL

**Q.** For OCCNCCO [Compound 20, Diethanolammonium Perbromide], which “Tit. Ox. Br2” value [1, 8] is on record?
**A.** 45.3 % by Weight

**Q.** What does the source list for NCCO [Compound 1, Ethanolammonium Perbromide]?
**A.** Initial Ox. Br2 ([4]; 50° C.): 40.8 % by Weight; Change in % Br2 [4, 10]: 1.8%; Final Ox. Br2 [4, 10]: 39.0 % by Weight; Relative Change in % Br2 [4, 11]: 4.4%; Change in % Br2 ([4]; ambient temperature, 24 months): 1.6%; Final Ox. Br2 ([4]; ambient temperature, 24 months): 38.5 % by Weight; Relative Change in % Br2 ([4]; ambient temperature, 24 months, 1.0512e+06 min): 4.0%; Initial Ox. Br2 ([4]; ambient temperature): 40.1 % by Weight

**Q.** Which Vp [2] does the source give for CNCCO [Compound 5, Methylethanolammonium Perbromide] here?
**A.** 28 mmHg

**Q.** What about the “Tit. Ox. Br2” value [1, 7] of the same molecule?
**A.** 39.3 % by Weight

**Q.** What about the “Ox. Br2” value [1] of the same molecule?
**A.** 39.3 % by Weight

**Q.** For Propylammonium Perbromide [Compound 22], which “Relative Change in % Br2” value ([4]; 29200 h) is on record?
**A.** 2.7%

**Q.** And the “Relative Change in % Br2” value ([4]; ambient, 17520 h)?
**A.** 2.3%

**Q.** With NCCO [Compound 18, Ethanolammonium Perbromide] as the molecule, how does the “Tit. Ox. Br2” value [1, 8] read?
**A.** 51.8 % by Weight

**Q.** Which “Tit. Ox. Br2” value [1, 7] does the source give for CCNCCO [Compound 6, Ethylethanolammonium Perbromide] here?
**A.** 37.7 % by Weight

**Q.** With NCCO [Compound 29] as the molecule, how does the “Tit. Ox. Br2” value [1, 6] read?
**A.** 72.6 % by Weight

**Q.** What does the source list for CCCN [Compound 3, Propylammonium Perbromide]?
**A.** Vp [2]: 36 mmHg; Tit. Ox. Br2 [1, 7]: 39.3 % by Weight

**Q.** What does the source list for “Ethanolammonium Perbromide [Compound 21]”?
**A.** Relative Change in % Br2 ([4]; 29200 h): 3.1%; Relative Change in % Br2 ([4]; ambient, 17520 h): 2.0%

**Q.** What does the source list for OCCNCCO [Compound 4, Diethanolammonium Perbromide]?
**A.** Vp [2]: 49 mmHg; Initial Ox. Br2 ([4]; 50° C.): 37.0 % by Weight; Change in % Br2 [4, 10]: 7.0%; Final Ox. Br2 [4, 10]: 30.0 % by Weight; Relative Change in % Br2 [4, 11]: 18.9%

**Q.** Which vapor pressure [2] does the source give for NaBr3 [Compound 33, reference compound] here?
**A.** 140 mm Hg

**Q.** And the Vp [2]?
**A.** 145 mmHg

**Q.** What about the “Ox. Br2” value [1] of the same molecule?
**A.** 37.9 % by Weight

**Q.** For NCCCCCCN [Compound 16, 1,6-Hexanediammonium], which solubility [5] is on record?
**A.** 500 mg/mL

**Q.** What about the “Tit. Ox. Br2” value ([1]; perbromides precipitated out of aqueous solution (Table 3)) of the same molecule?
**A.** 51.8 % by Weight

**Q.** With CCCCCCCCN [Compound 9, Octylammonium Perbromide] as the molecule, how does the “Tit. Ox. Br2” value [1, 7] read?
**A.** 34.7 % by Weight

**Q.** With BrBr [Compound 35, Bromine, reference compound] as the molecule, how does the vapor pressure ([2]; 26° C.) read?
**A.** approximately 220 mm Hg

**Q.** What about the Vp [2] of the same molecule?
**A.** 223 mmHg

**Q.** What about the “Ox. Br2” value [1] of the same molecule?
**A.** 100 % by Weight

**Q.** What does the source list for CCCCN(CCCC)CCCC [Compound 12, Tributylammonium Perbromide, reference compound]?
**A.** Vp [2]: 28 mmHg; Ox. Br2 [1]: 37.5 % by Weight; Tit. Ox. Br2 [1, 9]: 36.0 % by Weight

**Q.** Which results are given for CCCCNCCCC [Compound 11, Dibutylammonium Perbromide]?
**A.** Vp [2]: 38 mmHg; Ox. Br2 [1]: 43.3 % by Weight; Tit. Ox. Br2 [1, 9]: 40.9 % by Weight; Change in % Br2 ([4]; ambient temperature, 16 months): 2.1%; Final Ox. Br2 ([4]; ambient temperature, 16 months): 41.1 % by Weight; Relative Change in % Br2 ([4]; ambient temperature, 16 months, 700800 min): 4.9%; Initial Ox. Br2 ([4]; ambient temperature): 43.2 % by Weight; solubility [3]: 10 mg/mL

**Q.** Which Vp [2] does the source give for NCCO [Compound 27] here?
**A.** 116 mmHg

**Q.** And the “Tit. Ox. Br2” value [1, 6]?
**A.** 57.7 % by Weight

**Q.** What about the “Ox. Br2” value [1] of the same molecule?
**A.** 57.7 % by Weight

**Q.** For NCCO [Compound 28], which “Tit. Ox. Br2” value [1, 6] is on record?
**A.** 63.9 % by Weight

**Q.** Which results are given for CCCNCCC [Compound 10, Dipropylammonium Perbromide]?
**A.** solubility [5]: 100 mg/mL; Tit. Ox. Br2 [1, 9]: 45.1 % by Weight
